What was measured:
[1] = Real time FT-IR curing performance at 405 nm in UViCure S105/TMPTA (1:1); details: LED @405 nm (110 mW/cm^2), 20 μm thickness, laminated
Description: (§1) The curing performance of individual products prepared above was assessed using real time FT-IR measurement. The photoinitiators were dissolved either in neat trimethylolpropane triacrylate (TMPTA; available as SR351 from Sartomer) or in a 1:1 (w/w) mixture of TMPTA and UViCure S105 as indicated, applied onto the FT-IR measurement plate, laminated to prevent oxygen inhibition, and irradiated with the indicated LED light source. For the epoxy component, the polymerization rate and final reactive group conversion were determined by monitoring the change of the relevant infrared band near 900 cm^−1 corresponding to an epoxide ring. For the acrylate component, the C═C stretch band near 1625 cm^−1 was used.

[2] = Thermal stability by DSC in UViCure S105E resin; type: physicochemical; details: DSC at 10° C./min, loading 1 wt % (Omnicat BL550 4 wt %; Speedcure 938/CPTX 1/0.5 wt %)
[3] = Real time FT-IR curing performance at 405 nm in neat TMPTA; details: 20 μm thickness, laminated; for Acrylate Polymerization rate Rp/[M0]*100: LED @405 nm (110 W/cm^2); for Acrylate Final conversion: LED @405 nm (110 mW/cm^2)
Description: as §1

[4] = Transmittance at 0.01% w/v in propylene carbonate; type: physicochemical
Description: The samples were prepared at 0.01% w/v in propylene carbonate.

[5] = Thermal stability by DSC in TMPTA resin; type: physicochemical; details: DSC at 10° C./min, loading 1 wt %
Description: Formulations comprising the photoinitiators and neat UViCure S105E resin and/or TMPTA resin were prepared as described at example 2.

[6] = Colour index 'b' of formulations before and after polymerization; type: physicochemical; details: UViCure S105E, thin samples (20 μm), under air, 300 s irradiation
Description: The low yellowing characteristics can be measured by the Colour index ‘b’ value on cured films.
Formulations comprising the photoinitiators and neat UViCure S105E resin were prepared as described at example 2.

[7] = Belt curing performance (thumb-twist depth cure) in hybrid acrylate/epoxy resin; details: for Cure speed in hybrid acrylate/epoxy resin: 24 μm film, under air, PI 2 wt %
Description: The photoinitiators were dissolved either in neat UViCure S105E resin or a hybrid acrylate/epoxy resin (prepared by mixing 60 wt parts UViCure S105E, 15 wt parts UViCure S130 and 25 wt parts SR492; all product are available from Sartomer). Formulations were prepared by combining all materials in the given proportions and then stirring at 30-40° C. until the samples were fully homogeneous; the formulations were then allowed to cool to room temperature. For all experiments, the formulations were cured on Leneta Form 3N-31 gloss finish paper at 6 μm and 24 μm film thickness using a belt-cure instrument; the films were prepared using a K-bar. All films were then cured under an LED lamp at a given belt speed. ‘Depth cure’ for each formulation was assessed using the ‘thumb-twist’ test (where no visible mark is made when a thumb is pressed down firmly onto the coating with a twisting motion), and from the belt speed; the calculated cure speed (in m/min) is given.

[8] = Working-curve measurement (Ec, Dp) on 405 nm DLP printers; details: at lower concentration
Description: Working-curves were printed on the 405 nm~3 mW/cm^2 Flashforge Hunter DLP printer or on the 405 nm~12 mW/cm^2 B9 Core 550 DLP printer from B9Creation. Various energy dosages were irradiated in sections of the build area (without a build platform installed), resulting in individual squares or thin films being cured. The thickness of the individual thin films were measured with a low force digital caliper+comparator stand from Mitutoyo to determine the cure depths. A plot of the cure depths vs. the logarithm of energy dosages was used to determine the critical exposure (Ec, mJ/cm^2) and penetration depth (Dp, mils).

[9] = LED 365 nm, 100% intensity (=70.1 mJ/cm^2), belt speed 40 m/min
[10] = LED 395 nm, 80 m/min, 50% intensity (=36.9 mJ/cm^2)

Structure (SMILES) | Acrylate Final conversion [1] | Acrylate Polymerization rate Rp/[M0]*100 [1] | Epoxy Final conversion [1] | Epoxy Polymerization rate Rp/[M0]*100 [1] | onset temperature of thermal polymerisation [2] | Acrylate Polymerization rate Rp/[M0]*100 [3] | Acrylate Final conversion [3] | % Transmittance at 355 nm [4] | % Transmittance at 420 nm [4] | onset temperature of thermal polymerisation [5] | Colour index ‘b’ value After Polymerization ([6]; LED @365 nm (120 mW/cm^2)) | Colour index ‘b’ value Before Polymerization ([6]; LED @365 nm (120 mW/cm^2)) | Colour index ‘b’ value After Polymerization ([6]; LED @385 nm (160 mW/cm^2)) | Colour index ‘b’ value Before Polymerization ([6]; LED @385 nm (160 mW/cm^2)) | Cure speed in hybrid acrylate/epoxy resin [7, 9] | Cure speed in hybrid acrylate/epoxy resin [7, 10] | belt cure speed compared with photoinitiator 1 ([7]; at 80 m/min in hybrid acrylate/epoxy resin at both 365 nm and 395 nm) | Dp and Ec compared with 4 (comp.) [8]
CCCOc1ccc(Cl)c2c(=O)c3cc(-[s+]4c5ccccc5c(=O)c5c(Cl)ccc(OCCC)c54)ccc3sc12 (stereo not shown) [Photoinitiator 5, 1-chloro-10-(8-chloro-9-oxo-5-propoxy-9H-thioxanthen-2-yl)-9-oxo-4-propoxy-9H-thioxanthen-10-ium Hexafluorophosphate] | 70% | 6.03 s⁻¹ | 44% | 3.87 s⁻¹ | ~214° ° C. | 2.01 s⁻¹ | 51% | 0.8% | 64.8% | 165 °C | 4.92 | 5.02 | 4.91 | 5.35 | 40.0 m/min | 80.0 m/min | superior cure speed | lower Op and higher Ec than 4 (comp.)
CC(C)c1ccc2sc3ccc(-[s+]4c5ccccc5c(=O)c5cc(C(C)C)ccc54)cc3c(=O)c2c1 (stereo not shown) [Photoinitiator 1, 9-oxo-10-[9-oxo-7-(propan-2-yl)-9H-thioxanthen-2-yl]-2-(propan-2-yl)-9H-thioxanthen-10-ium hexafluorophosphate] | 83% | 10.57 s⁻¹ | 47% | 8.12 s⁻¹ | ~220° ° C. | 3.43 s⁻¹ | 38% | 8.0% | 90.3% | 150 °C | 8.81 | 6.38 | 8.71 | 6.13 | 20.0 m/min | 40.0 m/min | – | –
CCc1cc(CC)c2sc3ccc([S+](c4ccc(C)cc4)c4ccc(C(=O)c5ccccc5)cc4)cc3c(=O)c2c1 (stereo not shown) [Photoinitiator 4, (4-benzoylphenyl)(5,7-diethyl-9-oxo-9H-thioxanthen-2-yl)(4-methylphenyl)sulfonium Hexafluorophosphate] | 83% | 12.20 s⁻¹ | 45% | 6.29 s⁻¹ | – | 5.70 s⁻¹ | 64% | 6.8% | 83.3% | – | 6.05 | 6.33 | 6.09 | 6.28 | 17.8 m/min | 15.1 m/min | – | –
Cc1ccc([S+](c2ccc(C(=O)c3ccccc3)cc2)c2ccc3sc4ccc(C(C)C)cc4c(=O)c3c2)cc1 (stereo not shown) [Photoinitiator 2, (4-benzoylphenyl)(4-methylphenyl)[9-oxo-7-(propan-2-yl)-9H-thioxanthen-2-yl]sulfonium Hexafluorophosphate] | 81% | 11.56 s⁻¹ | 45% | 6.12 s⁻¹ | ~240° ° C. | 4.58 s⁻¹ | 53% | 19.7% | 94.3% | 170 °C | 6.31 | 6.48 | 6.26 | 6.49 | 11.1 m/min | 16.4 m/min | – | –
